Measured values published in PubChem BioAssay (NCI).
Values joined by “and” are separate entries in the source; they are usually repeats but may differ in a detail not shown here. Identical values can stand only once.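 Growth conditions: 96-well plates. Treatment: test compound, 48 hours, 5 concentrations. Analysis: linear interpolation between bracketing concentrations; unreached endpoints set to highest concentration. GI50 = concentration required for 50% inhibition of growth. TGI marks complete inhibition of growth.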

How the values were obtained:
Assay in all cases: growth of human tumour cells (NCI), 48 h
TK-10 renal = system: TK-10 renal
NCI-H226 lung = system: NCI-H226 lung
RXF 393 renal = system: RXF 393 renal
SK-OV-3 ovarian = system: SK-OV-3 ovarian
MALME-3M melanoma = system: MALME-3M melanoma
BT-549 breast = system: BT-549 breast
IGROV1 ovarian = system: IGROV1 ovarian
KM12 colon = system: KM12 colon
SNB-19 CNS = system: SNB-19 CNS
A498 renal = system: A498 renal

| Compound | GI50 (TK-10 renal) [µM] | TGI (TK-10 renal) | GI50 (NCI-H226 lung) [µM] | TGI (NCI-H226 lung) | GI50 (RXF 393 renal) [µM] | TGI (RXF 393 renal) | GI50 (SK-OV-3 ovarian) [µM] | TGI (SK-OV-3 ovarian) | GI50 (MALME-3M melanoma) [µM] | TGI (MALME-3M melanoma) | GI50 (BT-549 breast) [µM] | TGI (BT-549 breast) [µM] | GI50 (IGROV1 ovarian) [µM] | TGI (IGROV1 ovarian) | GI50 (KM12 colon) [µM] | TGI (KM12 colon) | GI50 (SNB-19 CNS) [µM] | TGI (SNB-19 CNS) | GI50 (A498 renal) [µM] | TGI (A498 renal) |
| --- | --- | --- | --- | --- | --- | --- | --- | --- | --- | --- | --- | --- | --- | --- | --- | --- | --- | --- | --- | --- |
| CCCN(Cc1ccc(F)cc1)c1ccc(CO)c(Cl)c1 | 0.0777 | 0.357 µM | 0.0365 | 0.144 µM | 4.12 | 16.8 µM | 6.31 | 19 µM | 14.1 | 28.6 µM | 11.7 | 25.6 | 0.0897 | 0.39 µM | 13 | 27.3 µM | 12.7 | 26.8 µM | 0.0236 | 0.102 µM |
| Cn1c(=O)c2[nH]c(/N=N/N3CCN(CCO)CC3)nc2n(C)c1=O | – | > 100 µM | – | > 100 µM | – | > 100 µM | – | > 100 µM | – | > 100 µM | – | > 100 | – | > 100 µM | – | > 100 µM | – | > 100 µM | – | > 100 µM |
| O=C(CCl)c1ccc([N+](=O)[O-])o1 | 1.79 | 3.49 µM | 2.45 | 7.05 µM | 2.2 | 8.24 µM | 14.9 | 30.5 µM | 1.98 | 4.37 µM | 2.24 | 6.85 | 5.5 | 14 µM | 2.02 | 4.6 µM | 10.6 | 23.4 µM | 13.6 | 27.5 µM |
| NC(=O)[C@H]1CCN(c2ncnc(N)c2F)C[C@@H]1N1CCC[C@@H](Nc2cc(Cl)cc(C(F)(F)F)c2)C1=O | 13.5 | 39 µM | 18.4 | 70 µM | 6.01 | 25.5 µM | 6.33 | 56.3 µM | 19.1 | 42.8 µM | 21.4 | 51.1 | 5.12 | > 100 µM | 6.31 | > 100 µM | 25.8 | > 100 µM | 3.25 | 18.7 µM |
| CCn1c(-c2nonc2N)nc2cncc(C(=O)N3CCNCC3)c21 | > 25 | > 25 µM | > 25 | > 25 µM | > 25 | > 25 µM | > 25 | > 25 µM | > 25 | > 25 µM | > 25 | > 25 | > 25 | > 25 µM | > 25 | > 25 µM | > 25 | > 25 µM | > 25 | > 25 µM |
| Nc1ncnc2c1ccn2C1OC2COP(=O)(O)OC2C1O (stereo unspecified) | – | 4.8 µM | – | 28.5 µM | – | 5.02 µM | – | 24.5 µM | – | 1.41 µM | – | 24 | – | > 31 µM | – | 16.5 µM | – | > 75.9 µM | – | 28.2 µM |
| CCCN1C(=O)/C(=c2\sc3n(c2=O)C2C(NN=3)N(CC)C(=O)N2CC)c2ccccc21 (stereo unspecified) | 3.62 | 22.3 µM | 1.45 | > 33 µM | 0.277 | 3.23 µM | 0.737 | 14.9 µM | 0.612 | 25.1 µM | 1.66 | 13.2 | 0.876 | 14.1 µM | 0.41 | 13.8 µM | 0.765 | 23.8 µM | 0.188 | 0.77 µM |
| CC12CCC(=O)C=C1CCC1C2CCC2(C)C(C(=O)Cn3cnc4c(=S)nc[nH]c43)CCC12 (stereo unspecified) | – | > 100 µM | – | > 100 µM | – | 44 µM | – | > 100 µM | – | > 100 µM | – | > 100 | – | > 100 µM | – | > 100 µM | – | 73.8 µM | – | 79 µM |
| C=C(C)[C@@H]1CC=C(CO)CC1 | > 10 | > 10 µM and 998 µM | > 10 | > 10 µM and 1090 µM | > 10 | > 10 µM and 569 µM | > 10 | > 10 µM and 2570 µM | > 10 | > 10 µM and 1080 µM | – | > 10 | > 10 | > 10 µM and 1260 µM | > 10 | > 10 µM and 1050 µM | > 10 | > 10 µM and 1010 µM | > 10 | > 10 µM and 1170 µM |
| Fc1ccc(-c2nc3n(c2-c2ccncc2)CCS3)cc1 | > 25 | > 25 µM | > 16.4 | > 25 µM | > 16.5 | > 25 µM | > 25 | > 25 µM | > 25 | > 25 µM | > 25 | > 25 | > 25 | > 25 µM | > 25 | > 25 µM | > 25 | > 25 µM | > 25 | > 25 µM |
| CCOC(=O)Cc1c[nH]c(=S)[nH]c1=O | > 100 | > 100 µM | > 100 | > 100 µM | > 100 | > 100 µM | > 100 | > 100 µM | > 100 | > 100 µM | > 100 | > 100 | > 100 | > 100 µM | > 100 | > 100 µM | > 100 | > 100 µM | > 100 | > 100 µM |
| COc1cc(Cn2cc3c(c2)-c2oncc2CC3)cc(OC)c1OC | 5.77 | > 100 µM | 0.256 | > 100 µM | 0.0255 | > 100 µM | 0.0402 | > 57.5 µM | 0.0254 | 30.3 µM | 0.111 | > 100 | 0.0456 | 24.8 µM | 0.0312 | – | 0.0437 | > 100 µM | 0.0196 | 1.04 µM |
| c1ccc2[nH]c(-c3ccc(N4CCN(c5ccc(-c6nc7ccccc7[nH]6)cc5)CC4)cc3)nc2c1 | 37.9 | > 100 µM | 24.2 | > 100 µM | > 100 | > 100 µM | – | – | > 100 | > 100 µM | > 100 | > 100 | 69.6 | > 100 µM | 71.1 | > 100 µM | 10.5 | > 100 µM | 54.8 | > 100 µM |
